Reference: the supplement of paper PMC13380429

Columns and labels:
Conditions in all cases: 72 h
Caco-2 [1] = test: cell viability relative to DMSO; higher = less toxic
Vero E6 [2] = test: as above
Calu-3 [3] = test: as above
HepG2 [4] = test: as above
U2OS [5] = test: as above
Caco-2 [6] = test: drug sensitivity score (DSS) for viability; higher = more toxic; extreme values may be limits of the assay
Vero E6 [7] = test: as above
Calu-3 [8] = test: as above
HepG2 [9] = test: as above
U2OS [10] = test: as above
Caco-2 [11] = test: relative viability EC50 (midpoint between 100% and the lowest measured viability); higher = less toxic
Vero E6 [12] = test: as above
Calu-3 [13] = test: as above
HepG2 [14] = test: as above
U2OS [15] = test: as above

Which cell viability (Caco-2 [1]; 1 nM) does the source give for CCCN(CC1CC1)c1nc(C)nc(Nc2c(Cl)cc(Cl)cc2Cl)c1Cl here?
Its cell viability is 93.5%.

What about the cell viability (Caco-2 [1]; 10 nM) of the same compound?
The cell viability was 97.8%.

And the cell viability (Caco-2 [1]; 100 nM)?
The cell viability was 90%.

And the cell viability (Caco-2 [1]; 1000 nM)?
Its cell viability is 96.2%.

What about the cell viability (Caco-2 [1]; 10000 nM) of the same compound?
Its cell viability is 89.8%.

What about the cell viability (Vero E6 [2]; 1 nM) of the same compound?
Its cell viability is 98.3%.

And the cell viability (Vero E6 [2]; 10 nM)?
The cell viability was 96.7%.

What about the cell viability (Vero E6 [2]; 100 nM) of the same compound?
The cell viability was 94.9%.

What about the cell viability (Vero E6 [2]; 1000 nM) of the same compound?
Its cell viability is 96.8%.

And the cell viability (Vero E6 [2]; 10000 nM)?
Its cell viability is 106%.

And the cell viability (Calu-3 [3]; 1 nM)?
Its cell viability is 85.1%.

What about the cell viability (Calu-3 [3]; 10 nM) of the same compound?
The cell viability was 95.1%.

What about the cell viability (Calu-3 [3]; 100 nM) of the same compound?
Its cell viability is 93.8%.

What about the cell viability (Calu-3 [3]; 1000 nM) of the same compound?
The cell viability was 96.8%.

What about the cell viability (Calu-3 [3]; 10000 nM) of the same compound?
Its cell viability is 95.5%.

And the cell viability (HepG2 [4]; 1 nM)?
Its cell viability is 95.4%.

And the cell viability (HepG2 [4]; 10 nM)?
The cell viability was 94%.

And the cell viability (HepG2 [4]; 100 nM)?
Its cell viability is 106%.

What about the cell viability (HepG2 [4]; 1000 nM) of the same compound?
Its cell viability is 103%.

And the cell viability (HepG2 [4]; 10000 nM)?
Its cell viability is 97.2%.

What about the cell viability (U2OS [5]; 1 nM) of the same compound?
The cell viability was 100%.

And the cell viability (U2OS [5]; 10 nM)?
The cell viability was 97.3%.

And the cell viability (U2OS [5]; 100 nM)?
Its cell viability is 103%.

What about the cell viability (U2OS [5]; 1000 nM) of the same compound?
Its cell viability is 101%.

And the cell viability (U2OS [5]; 10000 nM)?
Its cell viability is 99.3%.

And the drug sensitivity score (Caco-2 [6])?
The drug sensitivity score was 0.

What about the drug sensitivity score (Vero E6 [7]) of the same compound?
The drug sensitivity score was 0.

What about the drug sensitivity score (Calu-3 [8]) of the same compound?
The drug sensitivity score was 0.

And the drug sensitivity score (HepG2 [9])?
Its drug sensitivity score is 0.

What about the drug sensitivity score (U2OS [10]) of the same compound?
The drug sensitivity score was 0.

And the “relative viability EC50” value (Caco-2 [11])?
The value was > 10 µM.

What about the “relative viability EC50” value (Vero E6 [12]) of the same compound?
The value was > 10 µM.

What about the “relative viability EC50” value (Calu-3 [13]) of the same compound?
Its value is > 10 µM.

And the “relative viability EC50” value (HepG2 [14])?
Its value is > 10 µM.

And the “relative viability EC50” value (U2OS [15])?
The value was > 10 µM.

For CCn1c(-c2nonc2N)nc2cncc(CNC3CCNCC3)c21, which cell viability (Caco-2 [1]; 1 nM) is on record?
The cell viability was 93.6%.

What about the cell viability (Caco-2 [1]; 10 nM) of the same compound?
Its cell viability is 95.1%.

What about the cell viability (Caco-2 [1]; 100 nM) of the same compound?
The cell viability was 105%.

And the cell viability (Caco-2 [1]; 1000 nM)?
The cell viability was 105%.

And the cell viability (Caco-2 [1]; 10000 nM)?
Its cell viability is 80.4%.

And the cell viability (Vero E6 [2]; 1 nM)?
Its cell viability is 93.3%.

And the cell viability (Vero E6 [2]; 10 nM)?
Its cell viability is 104%.

What about the cell viability (Vero E6 [2]; 100 nM) of the same compound?
Its cell viability is 101%.

And the cell viability (Vero E6 [2]; 1000 nM)?
The cell viability was 93.8%.

And the cell viability (Vero E6 [2]; 10000 nM)?
The cell viability was 94.1%.

And the cell viability (Calu-3 [3]; 1 nM)?
Its cell viability is 94%.

What about the cell viability (Calu-3 [3]; 10 nM) of the same compound?
Its cell viability is 103%.

What about the cell viability (Calu-3 [3]; 100 nM) of the same compound?
Its cell viability is 102%.

And the cell viability (Calu-3 [3]; 1000 nM)?
The cell viability was 120%.

And the cell viability (Calu-3 [3]; 10000 nM)?
Its cell viability is 114%.

What about the cell viability (HepG2 [4]; 1 nM) of the same compound?
The cell viability was 94.8%.

And the cell viability (HepG2 [4]; 10 nM)?
Its cell viability is 104%.

And the cell viability (HepG2 [4]; 100 nM)?
Its cell viability is 89.1%.

What about the cell viability (HepG2 [4]; 1000 nM) of the same compound?
The cell viability was 80.6%.

What about the cell viability (HepG2 [4]; 10000 nM) of the same compound?
Its cell viability is 79.7%.

And the cell viability (U2OS [5]; 1 nM)?
The cell viability was 93.9%.

And the cell viability (U2OS [5]; 10 nM)?
The cell viability was 98.2%.

What about the cell viability (U2OS [5]; 100 nM) of the same compound?
The cell viability was 96.7%.

What about the cell viability (U2OS [5]; 1000 nM) of the same compound?
The cell viability was 97.3%.

What about the cell viability (U2OS [5]; 10000 nM) of the same compound?
Its cell viability is 76.3%.

What about the drug sensitivity score (Caco-2 [6]) of the same compound?
The drug sensitivity score was 0.4.

What about the drug sensitivity score (Vero E6 [7]) of the same compound?
The drug sensitivity score was 0.

And the drug sensitivity score (Calu-3 [8])?
The drug sensitivity score was 0.

What about the drug sensitivity score (HepG2 [9]) of the same compound?
The drug sensitivity score was 3.9.

And the drug sensitivity score (U2OS [10])?
Its drug sensitivity score is 1.3.

And the “relative viability EC50” value (Caco-2 [11])?
The value was > 10 µM.

What about the “relative viability EC50” value (Vero E6 [12]) of the same compound?
Its value is > 10 µM.

What about the “relative viability EC50” value (Calu-3 [13]) of the same compound?
Its value is > 10 µM.

What about the “relative viability EC50” value (HepG2 [14]) of the same compound?
Its value is > 10 µM.

And the “relative viability EC50” value (U2OS [15])?
The value was > 10 µM.

With COc1cc(Br)c(S(=O)(=O)Nc2ccc(Cl)c(O[C@@H]3CCN(C)C3)c2)cc1OC as the compound, how does the cell viability (Caco-2 [1]; 1 nM) read?
The cell viability was 104%.

And the cell viability (Caco-2 [1]; 10 nM)?
The cell viability was 93.7%.

And the cell viability (Caco-2 [1]; 100 nM)?
Its cell viability is 99.7%.

And the cell viability (Caco-2 [1]; 1000 nM)?
The cell viability was 94.9%.

And the cell viability (Caco-2 [1]; 10000 nM)?
Its cell viability is 90%.

What about the cell viability (Vero E6 [2]; 1 nM) of the same compound?
Its cell viability is 101%.

And the cell viability (Vero E6 [2]; 10 nM)?
Its cell viability is 93.6%.

And the cell viability (Vero E6 [2]; 100 nM)?
The cell viability was 96.1%.

And the cell viability (Vero E6 [2]; 1000 nM)?
The cell viability was 97.8%.

And the cell viability (Vero E6 [2]; 10000 nM)?
Its cell viability is 108%.

And the cell viability (Calu-3 [3]; 1 nM)?
Its cell viability is 80.8%.

And the cell viability (Calu-3 [3]; 10 nM)?
Its cell viability is 99.2%.

And the cell viability (Calu-3 [3]; 100 nM)?
Its cell viability is 90.3%.

What about the cell viability (Calu-3 [3]; 1000 nM) of the same compound?
The cell viability was 94.3%.

What about the cell viability (Calu-3 [3]; 10000 nM) of the same compound?
Its cell viability is 85%.

What about the cell viability (HepG2 [4]; 1 nM) of the same compound?
Its cell viability is 97.6%.

What about the cell viability (HepG2 [4]; 10 nM) of the same compound?
Its cell viability is 98.3%.

What about the cell viability (HepG2 [4]; 100 nM) of the same compound?
Its cell viability is 106%.

And the cell viability (HepG2 [4]; 1000 nM)?
The cell viability was 91.8%.

What about the cell viability (HepG2 [4]; 10000 nM) of the same compound?
The cell viability was 36.3%.

What about the cell viability (U2OS [5]; 1 nM) of the same compound?
Its cell viability is 95.2%.

And the cell viability (U2OS [5]; 10 nM)?
The cell viability was 97.4%.

What about the cell viability (U2OS [5]; 100 nM) of the same compound?
The cell viability was 88.5%.

And the cell viability (U2OS [5]; 1000 nM)?
The cell viability was 97.7%.

And the cell viability (U2OS [5]; 10000 nM)?
Its cell viability is 95%.

And the drug sensitivity score (Caco-2 [6])?
The drug sensitivity score was 0.

What about the drug sensitivity score (Vero E6 [7]) of the same compound?
The drug sensitivity score was 0.

What about the drug sensitivity score (Calu-3 [8]) of the same compound?
The drug sensitivity score was 0.

And the drug sensitivity score (HepG2 [9])?
The drug sensitivity score was 4.9.

And the drug sensitivity score (U2OS [10])?
Its drug sensitivity score is 0.

What about the “relative viability EC50” value (Caco-2 [11]) of the same compound?
Its value is > 10 µM.

What about the “relative viability EC50” value (Vero E6 [12]) of the same compound?
The value was > 10 µM.

And the “relative viability EC50” value (Calu-3 [13])?
The value was > 10 µM.

What about the “relative viability EC50” value (HepG2 [14]) of the same compound?
The value was 2.13 µM.

What about the “relative viability EC50” value (U2OS [15]) of the same compound?
The value was > 10 µM.
